The values below come from PMC9719519, “Non-classical ferroptosis inhibition by a small molecule targeting PHB2” (Nature Communications, 2022).

Holding throughout (test): biochemical
What all share (set-up): Eurofins recombinant human kinase profiling, remaining kinase activity as % of control, 10 uM ATP
Holding throughout (settings): ATP 10 uM; read-out: %Ctrl@10 μM

In one test the target is T1, PRK2(h) (Homo sapiens, UniProt Q16513).
T1 construct: gene PKN2
The method, boiled down:
(§1)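 Recombinant human kinases, 401 in total, screened using an outsourced kinase profiling assay.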

Another test deals with T2, PI3 Kinase (p120)(h) (Homo sapiens, UniProt P48736).
T2 construct: gene PIK3CG
In outline: as §1

A further test has as its target T3, ZAK(h) (Homo sapiens, UniProt Q9NYL2).
T3 construct: gene MAP3K20
In outline: as §1

A further test concerns the target T4, CHK2(h) (Homo sapiens, UniProt O96017).
T4 construct: gene CHEK2
The method, boiled down:
as §1

For the next test, the target named is FGFR2(h) (Homo sapiens, UniProt P21802). In outline: as §1
For the next test, the target named is STK33(h) (Homo sapiens, UniProt Q9BYT3). In outline: as §1
The target in the next test is IRAK1(h) (Homo sapiens, UniProt P51617). In outline: as §1
The target in the next test is T5, SAPK3(h) (Homo sapiens, UniProt P53778).
T5 construct: gene MAPK12
The method, boiled down: as §1

For another test, the target named is T6, Fms(h) (Homo sapiens, UniProt P07333).
T6 construct: gene CSF1R
T6 sequence (P07333 whole entry): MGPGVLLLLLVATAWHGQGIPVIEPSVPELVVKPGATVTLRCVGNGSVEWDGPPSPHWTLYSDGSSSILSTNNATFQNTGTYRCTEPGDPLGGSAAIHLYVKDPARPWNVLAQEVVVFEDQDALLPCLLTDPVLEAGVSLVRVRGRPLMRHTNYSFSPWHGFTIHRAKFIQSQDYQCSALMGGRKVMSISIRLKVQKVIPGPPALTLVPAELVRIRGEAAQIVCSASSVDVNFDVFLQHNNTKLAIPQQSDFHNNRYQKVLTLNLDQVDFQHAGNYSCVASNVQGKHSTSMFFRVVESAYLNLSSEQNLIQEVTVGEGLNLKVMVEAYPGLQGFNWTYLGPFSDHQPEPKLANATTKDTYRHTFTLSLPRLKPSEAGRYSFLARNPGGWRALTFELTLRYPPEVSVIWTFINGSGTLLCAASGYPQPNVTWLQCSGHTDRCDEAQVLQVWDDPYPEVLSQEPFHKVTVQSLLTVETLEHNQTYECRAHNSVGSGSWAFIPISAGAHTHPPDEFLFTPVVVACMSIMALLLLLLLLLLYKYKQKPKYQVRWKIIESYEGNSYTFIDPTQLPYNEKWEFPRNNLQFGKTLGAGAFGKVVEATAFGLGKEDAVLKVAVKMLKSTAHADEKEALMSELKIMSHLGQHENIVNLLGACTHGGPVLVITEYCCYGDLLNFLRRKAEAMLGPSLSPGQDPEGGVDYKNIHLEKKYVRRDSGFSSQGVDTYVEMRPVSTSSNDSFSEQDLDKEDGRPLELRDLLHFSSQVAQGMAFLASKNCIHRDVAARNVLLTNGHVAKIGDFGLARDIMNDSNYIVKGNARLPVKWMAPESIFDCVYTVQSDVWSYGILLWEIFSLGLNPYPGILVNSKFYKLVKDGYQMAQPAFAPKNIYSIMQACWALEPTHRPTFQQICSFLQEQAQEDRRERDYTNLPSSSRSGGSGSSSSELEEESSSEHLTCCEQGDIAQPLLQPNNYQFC
The method, boiled down:
as §1

The target in a further test is Src(T341M)(h) (Homo sapiens, UniProt P12931, T341M). The method, boiled down:
as §1

The target of another test is NUAK2(h) (Homo sapiens, UniProt Q9H093). In outline:
as §1

In the next test the target is T7, PKAcβ(h) (Homo sapiens, UniProt P22694).
T7 construct: gene PRKACB
In outline:
as §1

A further test deals with PrKX(h) (Homo sapiens, UniProt P51817). The method, boiled down:
as §1

The target of another test is Plk4(h) (Homo sapiens, UniProt O00444). In outline: as §1
Plk4(h), sequence (O00444 whole entry): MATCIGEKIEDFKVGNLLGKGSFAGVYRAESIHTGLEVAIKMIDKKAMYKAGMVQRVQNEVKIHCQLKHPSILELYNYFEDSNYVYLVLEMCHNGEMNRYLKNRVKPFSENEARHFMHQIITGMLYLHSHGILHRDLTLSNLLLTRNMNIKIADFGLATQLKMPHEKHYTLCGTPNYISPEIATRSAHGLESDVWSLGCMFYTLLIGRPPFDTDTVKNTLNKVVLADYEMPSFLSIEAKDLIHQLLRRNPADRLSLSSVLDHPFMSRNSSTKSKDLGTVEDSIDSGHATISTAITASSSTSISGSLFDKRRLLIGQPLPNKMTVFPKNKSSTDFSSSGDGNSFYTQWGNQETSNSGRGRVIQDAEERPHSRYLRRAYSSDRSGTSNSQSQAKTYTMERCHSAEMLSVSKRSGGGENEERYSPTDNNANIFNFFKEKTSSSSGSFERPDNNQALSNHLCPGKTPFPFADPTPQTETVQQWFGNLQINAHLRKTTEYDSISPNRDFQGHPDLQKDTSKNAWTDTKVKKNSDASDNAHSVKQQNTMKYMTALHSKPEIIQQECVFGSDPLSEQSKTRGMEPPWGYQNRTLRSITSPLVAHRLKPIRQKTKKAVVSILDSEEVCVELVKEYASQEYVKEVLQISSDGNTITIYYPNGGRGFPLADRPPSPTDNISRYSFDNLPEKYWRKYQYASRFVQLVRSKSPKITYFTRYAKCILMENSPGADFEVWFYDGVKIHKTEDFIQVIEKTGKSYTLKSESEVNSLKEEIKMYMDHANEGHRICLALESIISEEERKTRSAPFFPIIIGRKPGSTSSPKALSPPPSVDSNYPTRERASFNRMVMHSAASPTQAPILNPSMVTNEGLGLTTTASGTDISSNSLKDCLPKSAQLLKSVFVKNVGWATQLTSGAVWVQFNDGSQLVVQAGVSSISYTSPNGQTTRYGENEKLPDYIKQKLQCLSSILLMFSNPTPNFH
In the next test the target is EphB4(h) (Homo sapiens, UniProt P54760). The method, boiled down:
as §1

The next test concerns the target T8, ICK(h) (Homo sapiens, UniProt Q9UPZ9).
T8 construct: gene CILK1
The method, boiled down:
as §1

For the next test, the target named is T9, ALK6(h) (Homo sapiens, UniProt O00238).
T9 construct: gene BMPR1B
In outline:
as §1

For another test, the target named is T10, CaMKIγ(h) (Homo sapiens, UniProt Q96NX5).
T10 construct: gene CAMK1G
The method, boiled down:
as §1

The next test has as its target SRMS(h) (Homo sapiens, UniProt Q9H3Y6). In outline: as §1
A further test has as its target T11, p70S6K(h) (Homo sapiens, UniProt P23443).
T11 construct: gene RPS6KB1
The method, boiled down: as §1

The target of another test is T12, MST2(h) (Homo sapiens, UniProt Q13188).
T12 construct: gene STK3
In outline:
as §1

A further test concerns the target STK32A(h) (Homo sapiens, UniProt Q8WU08). In outline:
as §1

The target of a further test is CaMKK1(h) (Homo sapiens, UniProt Q8N5S9). The method, boiled down:
as §1

PrKX(h), sequence (P51817 whole entry): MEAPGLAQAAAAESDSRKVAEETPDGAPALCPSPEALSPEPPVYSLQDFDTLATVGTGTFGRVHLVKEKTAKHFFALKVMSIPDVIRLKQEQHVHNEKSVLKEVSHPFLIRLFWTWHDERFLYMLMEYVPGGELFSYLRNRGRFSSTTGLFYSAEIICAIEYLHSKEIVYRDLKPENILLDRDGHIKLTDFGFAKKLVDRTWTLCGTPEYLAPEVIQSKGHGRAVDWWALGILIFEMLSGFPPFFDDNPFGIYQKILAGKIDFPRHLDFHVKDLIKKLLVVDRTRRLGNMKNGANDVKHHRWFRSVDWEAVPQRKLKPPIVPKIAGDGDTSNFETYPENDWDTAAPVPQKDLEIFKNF
EphB4(h), sequence (P54760 whole entry): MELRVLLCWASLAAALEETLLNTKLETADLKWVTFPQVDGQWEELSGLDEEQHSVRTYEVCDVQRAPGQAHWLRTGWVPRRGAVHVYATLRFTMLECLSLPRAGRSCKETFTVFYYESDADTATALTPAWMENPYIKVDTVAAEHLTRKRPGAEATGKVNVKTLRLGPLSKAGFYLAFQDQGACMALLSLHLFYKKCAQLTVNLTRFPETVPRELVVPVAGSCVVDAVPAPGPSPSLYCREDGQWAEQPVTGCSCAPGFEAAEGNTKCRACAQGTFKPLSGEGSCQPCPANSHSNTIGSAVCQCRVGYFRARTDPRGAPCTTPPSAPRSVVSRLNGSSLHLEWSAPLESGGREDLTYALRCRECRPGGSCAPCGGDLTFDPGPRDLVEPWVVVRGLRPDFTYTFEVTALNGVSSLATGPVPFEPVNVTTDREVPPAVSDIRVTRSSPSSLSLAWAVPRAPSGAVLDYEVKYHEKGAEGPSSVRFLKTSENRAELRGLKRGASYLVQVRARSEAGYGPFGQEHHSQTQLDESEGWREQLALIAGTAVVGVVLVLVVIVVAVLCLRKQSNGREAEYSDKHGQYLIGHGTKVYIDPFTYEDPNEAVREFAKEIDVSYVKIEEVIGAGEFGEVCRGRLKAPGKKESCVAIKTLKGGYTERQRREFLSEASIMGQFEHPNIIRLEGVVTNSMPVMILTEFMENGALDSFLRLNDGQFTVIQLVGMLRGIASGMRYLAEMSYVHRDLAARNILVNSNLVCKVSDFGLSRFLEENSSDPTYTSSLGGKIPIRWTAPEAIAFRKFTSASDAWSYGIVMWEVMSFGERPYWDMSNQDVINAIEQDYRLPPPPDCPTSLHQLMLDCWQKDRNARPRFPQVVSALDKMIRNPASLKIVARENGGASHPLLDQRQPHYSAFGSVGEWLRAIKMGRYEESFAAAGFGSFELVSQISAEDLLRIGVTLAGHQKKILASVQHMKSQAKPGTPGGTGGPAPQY
T11 sequence (P23443 whole entry): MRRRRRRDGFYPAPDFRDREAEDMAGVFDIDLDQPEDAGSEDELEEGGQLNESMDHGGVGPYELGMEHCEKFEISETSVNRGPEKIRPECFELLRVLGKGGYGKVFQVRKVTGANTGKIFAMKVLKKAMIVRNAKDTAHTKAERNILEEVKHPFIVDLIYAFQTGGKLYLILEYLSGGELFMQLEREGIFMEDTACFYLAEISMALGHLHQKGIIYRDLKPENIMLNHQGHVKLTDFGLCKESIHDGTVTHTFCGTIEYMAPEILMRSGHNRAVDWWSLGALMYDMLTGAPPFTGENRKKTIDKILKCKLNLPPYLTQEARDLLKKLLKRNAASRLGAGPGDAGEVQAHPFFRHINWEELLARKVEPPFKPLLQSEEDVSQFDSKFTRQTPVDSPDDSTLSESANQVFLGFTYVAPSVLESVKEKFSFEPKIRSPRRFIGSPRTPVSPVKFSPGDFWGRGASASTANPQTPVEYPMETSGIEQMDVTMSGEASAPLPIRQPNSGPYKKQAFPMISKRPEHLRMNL
NUAK2(h), sequence (Q9H093 whole entry): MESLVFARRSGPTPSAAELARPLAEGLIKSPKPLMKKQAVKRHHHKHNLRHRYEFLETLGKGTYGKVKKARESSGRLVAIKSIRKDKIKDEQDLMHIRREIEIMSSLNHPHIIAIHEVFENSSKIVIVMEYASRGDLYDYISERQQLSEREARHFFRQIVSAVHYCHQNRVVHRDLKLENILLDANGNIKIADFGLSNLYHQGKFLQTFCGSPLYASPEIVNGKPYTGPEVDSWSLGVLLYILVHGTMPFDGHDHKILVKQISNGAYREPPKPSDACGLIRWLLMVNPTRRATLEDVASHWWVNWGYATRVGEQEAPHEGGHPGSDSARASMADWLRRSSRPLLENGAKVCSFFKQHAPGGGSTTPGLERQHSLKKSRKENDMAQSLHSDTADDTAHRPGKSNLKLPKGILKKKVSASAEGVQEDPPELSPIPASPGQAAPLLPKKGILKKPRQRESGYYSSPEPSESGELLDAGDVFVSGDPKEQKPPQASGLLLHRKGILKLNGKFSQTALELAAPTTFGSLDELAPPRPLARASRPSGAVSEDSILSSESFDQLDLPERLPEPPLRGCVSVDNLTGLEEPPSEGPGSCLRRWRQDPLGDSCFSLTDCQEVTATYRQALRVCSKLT
STK32A(h), sequence (Q8WU08 whole entry): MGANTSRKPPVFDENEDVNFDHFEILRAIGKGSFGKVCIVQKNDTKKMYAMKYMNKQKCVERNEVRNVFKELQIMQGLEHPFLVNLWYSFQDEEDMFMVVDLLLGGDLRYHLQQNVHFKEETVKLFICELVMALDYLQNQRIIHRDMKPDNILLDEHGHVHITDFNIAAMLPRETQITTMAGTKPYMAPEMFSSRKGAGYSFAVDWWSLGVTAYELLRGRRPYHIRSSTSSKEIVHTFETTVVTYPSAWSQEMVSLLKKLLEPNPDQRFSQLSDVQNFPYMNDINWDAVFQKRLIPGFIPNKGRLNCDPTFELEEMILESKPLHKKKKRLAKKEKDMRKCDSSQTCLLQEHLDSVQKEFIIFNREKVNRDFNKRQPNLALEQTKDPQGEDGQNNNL

As to `C1=C(c2nc(-c3cnn(C4CCNCC4)c3)cn3cc(-c4ccccc4)nc23)CCOC1` [YL-939], the remaining activity at 10 µM on PRK2(h) was 89%; at PI3 Kinase (p120)(h), 104%; at ZAK(h), 85%; at CHK2(h) it was 100%; at FGFR2(h), 95%; at STK33(h) it was 105%. Besides, the remaining activity at 10 µM came out at 118% on IRAK1(h); 75% at SAPK3(h); 122% on Fms(h); 100% at Src(T341M)(h); 72% at NUAK2(h); 94% at PKAcβ(h). Also, the remaining activity at 10 µM on PrKX(h) turned out to be 80%; on Plk4(h), 88%; on EphB4(h), 97%; at ICK(h) it was 92%; on ALK6(h), 105%; at CaMKIγ(h), 108%. Moreover, the remaining activity at 10 µM on SRMS(h) was determined as 122%; at p70S6K(h), 61%; at MST2(h) it was 78%; at STK32A(h) it was 111%; at CaMKK1(h), 91%.
